From patent EP4659739A9, “TOPICAL FORMULATION COMPRISING NON-COVALENT KERATIN-ACTIVE AGENT CONJUGATES FOR THERAPEUTIC USE” (Rigi Therapeutics AG, priority 2024, dated 2025)

Tests used:
[1] = test system: Chorion-Allantois-Membran; assay: HET-CAM, preclinical tolerability; set-up: species or system Gallus gallus domesticus
Procedure: Als Screening hinsichtlich der Hautverträglichkeit der Keratinpartikel wurde dieses in eine halbfeste Formulierung eingearbeitet und an der Chorion-Allantois-Membran von acht- bis neuntägigen Gallus gallus domesticus Embryonen (Rasse: New Hampshire) getestet.
Die Hautverträglichkeit der Keratinpartikel wurde an der Chorion-Allantois-Membran von acht- bis neuntägigen Hühnerembryonen getestet. Befruchtete Hühnereier wurden hierfür acht bis neun Tage lang bei 37°C und 55 % Luftfeuchtigkeit bebrütet. Alle 12 Stunden wurden die Eier gewendet, ausgenommen die letzten 24 Stunden vor Versuchsbeginn. Die Öffnung der Eier wurde an den nach oben gerichteten Eierpolen durchgeführt, wofür die Eierschalen kreisrund (Ø 1,5 cm) geöffnet wurden. Nach dem Abnehmen der Eischalen wurden die Eihäute mit einer 37°C warmen 0,9%-igen NaCl-Lösung befeuchtet. Anschließend wurden unter der Sterilbank die äußeren Eihäute mittels Schere und Pinzette entfernt und die Chorion-Allantois-Membranen freigelegt. […] Die halbfeste Keratinpartikel-haltige Formulierung konnte nun an den gut ausgebildeten und unbeschädigten Blutgefäßen der Chorion-Allantois-Membranen aufgetragen und getestet werden. Das Testpräparat wurde an insgesamt sechs Eiern getestet, maximal 30 Minuten nach der Öffnung der Eier.
Im Rahmen der HET-CAM Untersuchungen wurden von dem Testpräparat (2,88 mg/ml kolloidale Keratin-Lösung in 0,5 % Hydoxyethylcellulose-Gel) je 200 µl auf die Chorion-Allantois-Membran appliziert und diese für insgesamt 300 Sekunden beobachtet. Während dieser Zeit wurden die Veränderungen an der Membran, hinsichtlich des Zeitpunktes des Auftretens (Irritationsscore, IS) und der Festlegung des Schweregrades zum Ende der Beobachtungszeit, dokumentiert. Hierbei wurden folgende Kriterien bewertet: Hämorrhagien (H) - das Auftreten von Blutungen; Gefäßlyse (L) - das Transparentwerden von Gefäßen und Koagulation (C) - das Stagnieren des Blutflusses als Zeichen der intravasalen Gerinnung. Als Negativkontrolle wurde steriles Wasser und als Positivkontrolle eine 1 %-ige Natriumlaurysulfat-Lösung eingesetzt. Die Berechnung des Irritationsscores (IS) erfolgte anhand der ICCVAM-Kriterien.
Als Bewertungskriterien des ISs wurden folgende Grenzwerte definiert:
Der Schweregrad von Veränderungen zum Ende des Beobachtungszeitraums wurde nach den folgenden Kriterien eingestuft:
Die Hämorrhagie (H) wurde entsprechend des Ausmaßes von Erythrozytenextravasaten den Kategorien halbquantitativ wie folgt zugeordnet: Einzelne Kapillarblutungen bei morphologisch intakten Kapillaren wurden als leichte, multiple Kapillarblutungen bei morphologisch intakten Kapillaren als mäßige und morphologisch geschädigte Kapillaren mit Kapillarblutungen oder Massenblutungen als schwere Hämorrhagie eingestuft. Vereinzelte transparente Kapillarabschnitte wurden als leichte, die Transparenz von ganzen Kapillaren als mäßige und das Auftreten von kompletten Gefäßlysen als schwere Lyse bewertet. Die Koagulation (C) wurde entsprechend des Ausmaßes von Koagulationsphänomenen den Kategorien halbquantitativ wie folgt zugeordnet: Einzelne Kapillarthrombosen bei morphologisch intakten Kapillaren wurden als leichte, multiple Kapillarthrombosen bei morphologisch intakten Kapillaren als mäßige und geschädigte Kapillaren mit langstreckigen Kapillarthrombosen als schwere C eingestuft. Die eingesetzten Hühnereier wurden nach einer Lagerung für 48 Stunden bei -20°C, hygienisch entsorgt. Tab.

[2] = Penetration kinetics of Mometasonfuroat, Franz diffusion cell, HPLC; type: in vitro ADME, human
Procedure: Um den Einfluss von monomerem beta-Keratin auf die Pharmakokinetik von Wirkstoffen nachzuweisen, wurde in einer halbfesten Cremematrix (Monovo® 1 mg/g Creme) gelöstes Mometasonfuroat, als Modellwirkstoff mit 2% Keratinpartikeln versetzt und zur Ausbildung von nicht-kovalenten Proteine-Wirkstoff-Konjugaten homogen verrührt und inkubiert. Zur Objektivierung der pharmakokinetischen Unterschiede wurde eine Diffusionskinetik der Formulierung ohne und mit Beimischung von Keratinpartikeln vergleichend bestimmt.
In der vorliegenden Studie wurde eine HPLC-Methode zur Quantifizierung von Mometasonfuroat in Proben aus der Penetrationsstudie verwendet. Es wurde eine analytische HPLC-UV-Methode entwickelt und validiert. Zur Bestimmung der Wiederfindung wurden dazu 3 Proben der Prüfformulierung mit 1,8 mL Lösungsmittel 1 h lang inkubiert (Laborschüttler, 150 U/min), anschließend zentrifugiert (13.000 U/min, 10 min) und gemessen. Die Wiederfindungsraten wurden mit den experimentell ermittelten Konzentrationen der Prüfgegenstände berechnet. Werte zwischen 95 % und 105 % wurden als unbeeinflusst und damit als korrekt angenommen.
Für jede Testformulierung wurden drei Humanhautproben, d. h. von drei verschiedenen Spendern untersucht. Jede Hautprobe ergab drei Stanzbiopsien zu drei verschiedenen Zeitpunkten, d. h. insgesamt […] Proben je Testformulierung. […]

[3] = summary Tab. 7, mean severity after 300 s

Structure (SMILES): CCCCCCCCCCCCOS(=O)(=O)O [1 % Natriumlaurylsulfat-Lösung, Natriumlaurylsulfat]
- IS-C ([1]; summary Tab. 7): 6,01
- IS-Gesamt ([1]; summary Tab. 7): 9,80
- IS-H ([1]; summary Tab. 7): 2,89
- IS-L ([1]; summary Tab. 7): 0,90
- SG-C [1, 3]: 3,00
- SG-H [1, 3]: 1,67
- SG-L [1, 3]: 0,42

Structure (SMILES): C[C@@H]1C[C@H]2[C@@H]3CCC4=CC(=O)C=C[C@]4(C)[C@@]3(Cl)[C@@H](O)C[C@]2(C)[C@@]1(OC(=O)c1ccco1)C(=O)CCl [Mometasonfuroat]
- kutane Bioverfügbarkeit [2]: keinen relevanten Einfluss
